Data as given in publication PMC4020785 (PLoS ONE, 2014).

How the values were obtained:
[1] = parameters: method as in personal communication from Bioqual – Rockville, USA; conditions: Rhesus macaques, orally treated at similar dose; ref personal communication from Bioqual – Rockville, USA; cited from earlier work
MT-4 cells = assay: Cell cycle analysis (propidium iodide) in MT-4 cells; type: cell-based; conditions: 48 h
Description: Human PBMCs and MT-4 cells were incubated at 37°C with different concentrations of ING-B for 48 h. After incubation, cells were collected, washed twice with PBS, and stained with 200 µl of propidium iodide (50 µg/mL, diluted in Hanks buffer with 1 mg/mL RNAse and 0.2% Triton X-100) for 15 min on ice before cytometry analysis.

[2] = parameters: method as in earlier work; conditions: rats, oral dosing; ref personal communication from Aurigon Life Science – Tutzing, Germany; cited from earlier work
[3] = system: HIV-1 p24 in J-Lat clones; assay: HIV-1 p24 production in J-Lat clones (ELISA); type: cell-based; conditions: J-Lat clones, GFP and p24 taken together
Description: (§1) ACH-2 and J1.1 are clonal cell lines derived from CEM [52] and Jurkat cells, respectively, after infection with HIV-1. U1 cells were derived from the human promonocyte cell line U937 and chronically infected with HIV-1 [54]. Each cell line (1×10^6 cells) was incubated in the presence of 1 µM of diterpenes (ING-A, ING-B, ING-C, prostratin and PMA) or 10 ng/mL TNF-α for 48 h at 37°C. After incubation, cells were centrifuged and supernatants were collected for the quantitation of gag p24 antigen by ELISA, following the protocol described by the manufacturer (Perkin Elmer).
To assess whether the GFP expression levels induced by ISDs in J-Lats led to viral production, all five clones were stimulated with 1 µM of each compound for 48 h and production of HIV-1 p24 was measured in the culture supernatant by ELISA. Levels of p24 were proportional to GFP expression in clones 6.3 and 9.2, whereas levels in clone 8.4 were lower when compared to GFP (Figure 3A).

[4] = system: HIV-1 clone NL4.3 (subtype B); assay: HIV-1 NL4.3 (subtype B) infection of human PBMCs, Cell Titer Blue readout; type: cell-based
Description: (§2) Human PMBCs were incubated with 100 U recombinant IL-2 (Sigma-Aldrich) and 5 µg/mL phytohemagglutinin-P (PHA-P) (Difco) for 5 days at 37°C. MT-4 cells (1×10^6) or treated PBMCs (1.2×10^8) were infected with HIV-1 clone NL-4.3 or ZM247Fv-1 (MOI of 0.001) by spinoculation (1200 g at room temperature for 2 h). Uninfected cells were used as negative control and were also subjected to the spinoculation process. After spinoculation, supernatants were discarded and cells were resuspended in 10 mL of R10. Cells from each condition were then added to wells (96-well plate) containing serial dilutions of each ISD. For MT-4 cells, each dilution was done in sextuplicates and, for PBMCs, in triplicates. Cells were also incubated with different concentrations of ZDV as positive control. After 5 days in culture, Cell Titer Blue was added to each well and cells were incubated for additional 24 h. The median effective concentration for each drug is defined as EC50. In parallel with the infectivity assay, the same cell types were treated with different concentrations of drugs to determine their cytotoxicity, following the protocol described above. Drug concentration that results in a 50% decrease in viable cells is defined as the CC50 for each compound. EC50 was calculated according to Spearman-Karber and therapeutic index was defined by the ratio between CC50 and EC50 [55].
(§3) All statistical analyses were performed using program GraphPism version 6.0. Titrations for TCID50 infectivity were calculated by the Spearman-Karber method. Dose response curves to ISDs with HIV-1 subtype B and C were done using non-linear regression and were fit to the Hill equation.

J1.1 cells = assay: gag p24 production in J1.1 cells (ELISA); type: cell-based, HIV-1; conditions: 1 µM, 48 h
Description: as §1

[5] = system: latent HIV in CD4+ T cells from virally suppressed patients; assay: HIV pol RNA (RT-qPCR) in CD4+ T cells from HIV+ HAART-treated patients; type: cell-based, human; conditions: CD4+ T cells of five HIV+ HAART-treated patients, 1 µM, 24 h
Text: Whole blood from five HIV+ patients at the Hospital Universitário Gaffrée e Guinle (Rio de Janeiro, Brazil) was collected for reactivation experiments. All individuals enrolled in the study voluntarily and provided written informed consent. Patients presented undetectable viral load (<50 copies/mL), more than 500 CD4+ T cells/mm^3 and have been HAART-treated for at least 10 months (Table 1). PBMCs where isolated following a Ficoll-Paque Plus protocol (GE Healthcare, UK). CD4+ T cells were selected by magnetic beads as described above, and 10^6 cells were incubated in R10 containing 1 µM of the testing compounds (ING-B, prostratin or PMA). DMSO 1% was used as negative control. The antiretroviral EFV (10 µM) was added to all conditions to prevent viral spread. After 24 h, cells were collected for RNA isolation using the All Prep Qiagen kit (Qiagen), as instructed by the manufacturer.
Total RNA from CD4+ T cells was analyzed by RT-qPCR using primers and probe (Life Technologies) specific for the HIV-pol region, as following: forward primer Pol-F (5'-[…] TTT T-3'), reverse primer Pol-R (5'-[…]-3') and a minor groove binder (MGB) probe Pol-Pb (5'-VIC-ATC CCC CCT TTT CTT T-3'). […]

[6] = Cytotoxicity (CC50) in human PBMCs; type: cell-based; conditions: human PBMCs activated with IL-2 and PHA-P; Human PBMC, Subtype C (R5)
Description: Cytotoxicity of ISDs was evaluated in J-Lat (clones 9.2 and 10.6) and PHA-activated human PBMCs. Cells were added to wells in a 96-well plate in the presence of various concentrations of ISDs, PMA or prostratin in sextuplicates for 24 and 72 h. Cell viability was determined using the CellTiter-blue fluorescence Cell Viability Assay (Promega) following the manufacturer's instruction.
as §2

[7] = system: HIV-1 clone ZM247Fv-1 (subtype C); assay: HIV-1 ZM247Fv-1 (subtype C) infection of MT-4 cells, Cell Titer Blue readout; type: cell-based
Description: as §2, §3

What does the source list for CCCCCC(=O)O[C@H]1C(C)=C[C@]23C(=O)[C@@H](C=C(CO)[C@@H](O)[C@]12O)[C@H]1[C@@H](C[C@H]3C)C1(C)C [ING-B, ingenol-3-hexanoate]?
side effects [1]: negligible side effects; cell cycle phases (MT-4 cells): did not alter cell cycle phases; no-observed-adverse-effect level [2]: 4 mg/kg/day; HIV-LTR activation, overall comparison [3]: equivalent levels to PMA and TNF-α; TI (CC50/EC50) ([4]; Human PBMC, Subtype B (X4)): 714.3; EC50 ([4]; Human immunodeficiency virus 1, PBMC): 56 nM; p24 production (in words) (J1.1 cells): as much p24 production as PMA and TNF-α, and twice as much as prostratin; HIV transcription (in words) [5]: levels similar to PMA treatment; CC50 at 5 days [6]: 40000 nM; EC50 ([7]; Human immunodeficiency virus 1, MT4): 25 nM; TI (CC50/EC50) ([7]; MT-4 cells, Subtype C (R5)): 1120
